# Assay results reported in ChEMBL document CHEMBL3286269, “Group A streptococcus inhibitors by high-throughput virtual screening” (2014).
# Tested on: Streptococcus sp. 'group A'
# Assay: Antibacterial activity against group A streptococcus MGAS2221 after 12 hrs by microscopic count analysis
# Format: functional
# Details: MGAS2221, 12 h
row,SMILES,MIC [µM]
1,OCC/N=C/c1cc(Cl)cc(Cl)c1O,20
2,Oc1c(Cl)cc(Cl)cc1/C=N/CC1CCCO1 (configuration not stated),20
3,O=C1NN=CC1CCC/N=C/c1cc(Br)ccc1O (configuration not stated),40
4,Cc1ccc([N+](=O)[O-])c(NC(=O)NC(=O)c2c(Cl)cccc2Cl)c1C,50

# More lines, in order of falling MIC, values ahead:
row,MIC [µM],SMILES
1,20,O=Cc1cc(Cl)cc(Cl)c1O
2,10,O=C1NN=CC1CCC/N=C/c1cc(Cl)cc(Cl)c1O (configuration not stated)
3,10,Oc1c(Cl)cc(Cl)cc1/C=N/CC1CCC(C/N=C/c2cc(Cl)cc(Cl)c2O)CC1 (configuration not stated)
